From patent US20200384188A1, “SYSTEMS, DEVICES, FORMULATIONS AND METHODS FOR CONTROLLED DRUG DELIVERY” (priority 2017, published 2020)
“And” between values parts separate entries of the source, which are not always exact repeats. Equal values may be shown once.

Assays:
[1] = Minipig pharmacokinetics study (BB-1802), single subcutaneous infusion via insulin pump, plasma LC-MS/MS; details: for half-life / Tmax: Gottingen, minipig, plasma, sc; for Tmax: mean Tmax
Experimental: The purpose of this study was to determine the pharmacokinetics of ketamine after a single subcutaneous infusion dose to minipigs.
Dose Administration: In each phase, animals received a single subcutaneous infusion (up to 18 hours) via insulin pump (Medtronic MiniMed Paradigm® Insulin Pump). The infusion pump was programmed in accordance with a Study Specific Procedure, and the infusion was continuously monitored for the duration of the dose. […] The pump was inspected, re-secured to the animal, and the dose continued.
For each phase, blood (approximately 2 mL) was collected via jugular vein catheter into tubes containing K3EDTA from each animal predose and at approximately 0.083, 0.25, 0.5, 1, 2, 4, 8, 9 (Phases 1 through 3 only), 10 (Phases lthrough 3 only), 12, 15 (Phases 4 and 5 only), 18 (Phases 4 and 5 only), 20 (Phases 4 and 5 only), 22 (Phases 4 and 5 only), and 24 hours postdose, with the following exceptions in Phase 3 for Animal 50004 (Group 1 male). […] Times were based on the start of the infusion.
Plasma samples were analyzed for concentrations of ketamine using an established liquid chromatography/mass spectrometry (LC-MS/MS) method.
Noncompartmental analysis (1) was applied to the individual plasma ketamine concentration data for males and females. The following parameters were estimated whenever possible:
Nominal doses and sampling times were used. […] Embedded zeros were excluded from pharmacokinetic analysis.

[2] = system: Gottingen Minipigs; test: Minipig animal observations and necropsy; format: in vivo, Gottingen Minipig; details: Animals S0001 and S0004, Group 1 males
Description: All animals appeared healthy prior to dosing and throughout the duration of the study, with the following observations noted.

[3] = system: male Sprague-Dawley rats; test: Writhing test (acetic acid-induced abdominal spasm); format: in vivo, rat
Experimental: In the abdominal spasm (acetic acid-induced writhing) test, acetic acid is injected into the peritoneal cavity where it directly activates nociceptors and results in an abdominal writhing response. This writhing response is characterized by contraction of abdominal muscles followed by an extension of the hind limbs (Collier et al., 1968). This pain-behavior is considered reflexive and evidence of visceral pain associated with visceral chemoreceptors (Hammond, 1989). […] It is widely accepted that this model can be used as a screening method to determine the effects of drugs on inflammatory induced nociception (Vogel et al., 1997; Chiba et al., 2008). Although it can be used as a screening tool, it is unclear as to which clinical conditions the use of a chemical irritant represents (Gregory et al., 2013).
(§1) Eighteen male Sprague-Dawley rats were obtained from Charles River, Margate, United Kingdom, and were used for dosing. Animals weighed between 319 and 419 g on the day of dosing. Eight male Han Wister rats were obtained from Charles River, Margate, United Kingdom and used for Group 4. Animals weighed between 381 and 504 g on the day of dosing. The animals were assessed according to Table 1.
(§2) Animals were dosed subcutaneously via a motorized insulin pump.
At 1 hour post administration of ketamine, each animal was administered a 1 mL intraperitoneal injection of 1% acetic acid. Animals were immediately placed into individual observation chambers, and the number of abdominal spasms elicited over the subsequent 25-minute period was recorded.
Comparisons were made to background data.

[4] = system: male Sprague-Dawley rats; details: rat, in vivo
[5] = system: rats; details: 50 mg/kg; cited from earlier work
[6] = system: rats; test: Signs of anesthesia recorded during the rat pain tests; format: in vivo; details: 50 mg/kg sc via insulin pump
Experimental: Signs of anesthesia were recorded.
(§3) Day of Dosing: On the day of dosing, each animal was administered a 0.1 mL 20% suspension of Brewers Yeast subcutaneously into the sub-plantar of the right hind paw at approximately 180 minutes prior to ketamine administration. Immediately prior to ketamine administration (Group 4), 15 and 30 minutes and 1, 2, and 4 hours post administration of ketamine, each animal was assessed for a response to increasing pressure on both hind paws (Group 1 used right hind paw, Group 4 used both hind paws), using the analgesy meter. Signs of anesthesia were recorded.

[7] = system: rats (Group 1 Sprague-Dawley, Group 4 Han Wister); test: Randall-Selitto test (Brewers Yeast-inflamed hind paw, analgesy meter); format: in vivo, rat; details: for Force (g) applied to the inflamed (right) paw, individual animals / Force (g) applied to the inflamed (right) paw, mean / % change from baseline, force on inflamed (right) paw / % change from baseline, force on untreated (left) paw / Force (g) applied, Left paw, individual animals / Force (g) applied, Right Paw (inflamed), individual animals / Force (g) applied to the untreated (left) paw, mean: 50 mg/kg sc; for Force (g) applied to the inflamed (right) paw, individual animals: animals R0001-R0006; for Force (g) applied to the inflamed (right) paw, individual animals / Force (g) applied, Left paw, individual animals / Force (g) applied, Right Paw (inflamed), individual animals: 50 mg/kg
Description: The Randall Selitto test is a tool to assess the response thresholds to mechanical pressure stimulation following induction of a hyperalgesic state by injection of an inflammatory agent and is considered a measure of mechanical hyperalgesia (Randall and Selitto, 1957). This involves application of an increasing force to the surface of the paw until withdrawal or vocalization occurs. The test can produce results similar to decreases on pressure pain thresholds observed in clinical conditions, such as fibromyalgia, myofascial pain, or osteoarthritis (Arendt-Nielsen et al., 2010; Bennett, 2007; Finan et al., 2013; Hsu et al., 2010). Centrally and peripherally acting effects can be detected using this model, for example, opioids increase the mechanical threshold to the normal and inflamed paw, whereas nonsteroidal anti-inflammatory drugs are only effective in the inflamed paw.
as §1, §2
The threshold of a pain response to increasing pressure was measured using an analgesy meter (Ugo Basile, Italy). The animal was gently held by a competent operator, and the hind paw of the animal was positioned over a convex surface (a cone-shaped pusher). A gradually increasing pressure (g) was applied to the upper surface of the paw. The force was continuously monitored by a pointer moving along a linear scale and was stopped by depression of a foot pedal when the animal struggled. A cut-off value of 300 g was adopted (based on available literature and experience).
Pre-dose Phase: The pressure pain threshold of each animal was tested on two occasions (once in the morning and once in the afternoon). This allowed animals to acclimate to the procedure.
as §3

## CNC1(c2ccccc2Cl)CCCCC1=O (centres unmarked) [ketamine]
[1]; 8 mg/kg
  half-life: 5.76 h
[1]; 12 mg/kg
  half-life: 5 h
[1]; 18 mg/kg
  half-life: 3.12 h
[1]; Phase 1
  mean concentration values measurable through (post the start of infusion): 12 h
[1]; Phase 5: 18 mg/kg, 1 mg/kg/hr, 18-hour SC infusion
  mean Css: 700 ng/mL
[1]; Phases 1 through 4
  steady-state, in words: did not appear to reach a steady-state
[1]; Phases 3 through 5
  mean concentration values measurable through (post the start of infusion): 24 h
[1]; all animals
  time to detectible plasma ketamine levels after initiating subcutaneous infusion: ≤ 5 min
[1]; dose level from 4 to 18 mg/kg
  exposure to ketamine against dose level: generally increased with the increase in dose level
[1]; female, 18 mg/kg, Phases 4 and 5: 18 mg/kg, 1 mg/kg/hr, 18-hour SC infusion, female
  Tmax: 13.5 h
[1]; male, 8 mg/kg, Phase 2: 8 mg/kg, 1 mg/kg/hr, 8-hour SC infusion, males
  Tmax: 4.5 h
[1]; male, 12 mg/kg, Phase 3: 12 mg/kg, 1.5 mg/kg/hr, 8-hour SC infusion, males
  Tmax: 2.04 h
[1]; males, dose level from 4 to 8 mg/kg
  dose proportionality of the increases in mean Cmax and AUC0-24: less than dose proportional
[1]; males, dose level from 8 to 12 mg/kg
  dose proportionality of the increases in mean Cmax and AUC0-24: greater than dose proportional
[2]
  relation of adverse effects (euthanized animals, necropsy) to the test article: not test article related
[3]; 50 mg/kg sc, 1 hour after ketamine, animals R0201-R0206
  Number of acetic acid-induced Abdominal Spasms, individual animals: 0 and 4 and 3 and 5 and 1 and 8
[3]; ketamine infusion versus baseline of 29/25 min
  reduction of elicited spasms from baseline values: 86%
[3]; ketamine infusion, baseline 29/25 min
  number of elicited spasms, average: 4 /25 min
[4]
  Time (s) taken for response, individual animals: 4.2 s (2×) and 5.2 s (3×) and 5.9 s and 5.1 s and 7.7 s and 6.2 s (2×) and 4.4 s and 7.0 s and 7.5 s and 5.5 s and 6.4 s (2×) and 7.4 s (3×) and 6.5 s (2×) and 3.5 s and 5.8 s (3×) and 4.3 s and 4.9 s and 6.1 s and 5.7 s and 7.6 s
  Time (s) taken for response, mean: 5.6 s and 5.9 s and 6.3 s
  group mean reaction time (longest): 6.3 s
  group mean reaction time (shortest): 5.6 s
  latency of tail flick, in words: slight increase in latency of tail flick at all post-dose time points
  magnitude of the increase in time taken for pain to be perceived: 1.1 s
  maximum effect, increase in time to tail flick: 21.4%
[5]
  relief of evoked pain 24 hours after administration: no relief of evoked pain
[6]
  Signs of anesthesia: reduced righting reflex, body tone, and ataxia up to 1 hour post-dose
[7]; Group 1, 0.25 h
  Force (g) applied to the inflamed (right) paw, individual animals: 90 g (2×) and 20 g and 40 g (2×) and 120 g
[7]; Group 1, 0.25 h, n=6
  Force (g) applied to the inflamed (right) paw, mean: 153.3 g
[7]; Group 1, 0.5 h
  Force (g) applied to the inflamed (right) paw, individual animals: 100 g and 130 g and 80 g and 170 g and 120 g and 40 g
[7]; Group 1, 0.5 h, n=6
  Force (g) applied to the inflamed (right) paw, mean: 66.7 g
[7]; Group 1, 1 h
  Force (g) applied to the inflamed (right) paw, individual animals: 130 g and 120 g (2×) and 80 g (2×) and 60 g
[7]; Group 1, 1 h, n=6
  Force (g) applied to the inflamed (right) paw, mean: 106.7 g
[7]; Group 1, 2 h
  Force (g) applied to the inflamed (right) paw, individual animals: 60 g and 110 g and 50 g and 200 g and 120 g and 140 g
[7]; Group 1, 2 h, n=6
  Force (g) applied to the inflamed (right) paw, mean: 98.3 g
[7]; Group 1, 4 h
  Force (g) applied to the inflamed (right) paw, individual animals: 120 g (2×) and 110 g and 140 g and 90 g (2×)
[7]; Group 1, 4 h, n=6
  Force (g) applied to the inflamed (right) paw, mean: 113.3 g
[7]; Group 1, 0.5 to 2 hours post-dose versus the 15 minute time point, majority of animals
  pressure required to initiate a response, in words: increase in pressure required to initiate a response
[7]; Group 4, 0.25 h
  % change from baseline, force on inflamed (right) paw: −5.7%
  % change from baseline, force on untreated (left) paw: −17.0%
  Force (g) applied, Left paw, individual animals: 60 g and 100 g and 180 g and 90 g and 80 g and 130 g and 110 g and 30 g
  Force (g) applied, Right Paw (inflamed), individual animals: 10 g and 30 g and 80 g and 50 g and 40 g and 60 g (2×) and 0 g
[7]; Group 4, 0.25 h, n=8
  Force (g) applied to the inflamed (right) paw, mean: 41.3 g
  Force (g) applied to the untreated (left) paw, mean: 97.5 g
[7]; Group 4, 0.5 h
  % change from baseline, force on inflamed (right) paw: 34.3%
  % change from baseline, force on untreated (left) paw: −9.6%
  Force (g) applied, Left paw, individual animals: 120 g (2×) and 130 g (2×) and 150 g and 90 g and 70 g and 40 g
  Force (g) applied, Right Paw (inflamed), individual animals: 40 g (2×) and 50 g and 80 g and 90 g and 70 g and 100 g and 0 g
[7]; Group 4, 0.5 h, n=8
  Force (g) applied to the inflamed (right) paw, mean: 58.8 g
  Force (g) applied to the untreated (left) paw, mean: 106.3 g
[7]; Group 4, 1 h
  % change from baseline, force on inflamed (right) paw: 65.7%
  % change from baseline, force on untreated (left) paw: −10.6%
  Force (g) applied, Left paw, individual animals: 80 g (3×) and 160 g and 100 g (2×) and 200 g and 40 g
  Force (g) applied, Right Paw (inflamed), individual animals: 80 g and 60 g and 140 g and 40 g and 70 g (2×) and 90 g and 30 g
[7]; Group 4, 1 h, n=8
  Force (g) applied to the inflamed (right) paw, mean: 72.5 g
  Force (g) applied to the untreated (left) paw, mean: 105.0 g
[7]; Group 4, 2 h
  % change from baseline, force on inflamed (right) paw: 165.7%
  % change from baseline, force on untreated (left) paw: −24.5%
  Force (g) applied, Left paw, individual animals: 100 g (2×) and 70 g and 130 g and 80 g (2×) and 90 g and 60 g
  Force (g) applied, Right Paw (inflamed), individual animals: 180 g and 80 g (2×) and 240 g and 70 g (2×) and 120 g and 90 g
[7]; Group 4, 2 h, n=8
  Force (g) applied to the inflamed (right) paw, mean: 116.3 g
  Force (g) applied to the untreated (left) paw, mean: 88.8 g
[7]; Group 4, 4 h
  % change from baseline, force on inflamed (right) paw: 38.45%
  % change from baseline, force on untreated (left) paw: 14.9%
  Force (g) applied, Left paw, individual animals: 130 g (2×) and 110 g (3×) and 220 g and 90 g and 180 g
  Force (g) applied, Right Paw (inflamed), individual animals: 60 g and 90 g and 170 g and 100 g (2×) and 80 g and 150 g and 70 g
[7]; Group 4, 4 h, n=8
  Force (g) applied to the inflamed (right) paw, mean: 102.5 g
  Force (g) applied to the untreated (left) paw, mean: 135.0 g
[7]; Group 4, 15 minutes post-dose
  pressure required in the treated (right) paw at 15 minutes post-dose, in words: slight decrease
[7]; Group 4, between 0.5 and 2 hours post-dose compared to pre-dose, time dependent
  pressure required to initiate a response in the treated (right) paw, in words: increase in pressure required to initiate a response
[7]; Group 4, throughout the data collection
  force applied to the untreated (left) paw, in words: remained comparable to pre-dose
